How the values were obtained:
[1] = system: HDAC (HeLa nuclear extract); assay: HDAC fluorimetric assay kit (AK-500, Biomol), inhibition of HDAC enzymatic activity; format: biochemical; details: Fluor de Lys substrate, graded IC50
Experimental: (b) An In Vitro Assay which Determines the Ability of a Test Compound to Inhibit HDAC Enzymatic Activity.
HDAC inhibitors were screened using an HDAC fluorimetric assay kit (AK-500, Biomol, Plymouth Meeting, Pa.). Test compounds were dissolved in dimethylsulphoxide (DMSO) to give a 20 mM working stock concentration. Fluorescence was measured on a WALLAC Victor 2 plate reader and reported as relative fluorescence units (RFU). Data were plotted using GraphPad Prism (v4.0a) and IC50's calculated using a sigmoidal dose response curve fitting algorithm. Each assay was setup as follows: Defrosted all kit components and kept on ice until use. Diluted HeLa nuclear extract 1:29 in Assay Buffer (50 mM Tris/Cl, pH 8.0, 137 mM NaCl, 2.7 mM KCl, 1 mM MgCl2). Prepared dilutions of Trichostatin A (TSA, positive control) and tested compounds in assay buffer (5× of final concentration). Diluted Fluor de Lys™ Substrate in assay buffer to 100 uM (50 fold=2× final). Diluted Fluor de Lys™ developer concentrate 20-fold (e.g. 50 μl plus 950 μl Assay Buffer) in cold assay buffer. Second, diluted the 0.2 mM Trichostatin A 100-fold in the 1× Developer (e.g. 10 μl in 1 ml; final Trichostatin A concentration in the 1× Developer=2 μM; final concentration after addition to HDAC/Substrate reaction=1 μM). Added Assay buffer, diluted trichostatin A or test inhibitor to appropriate wells of the microtiter plate. Added diluted HeLa extract or other HDAC sample to all wells except for negative controls. Allowed diluted Fluor de Lys™ Substrate and the samples in the microtiter plate to equilibrate to assay temperature (e.g. 25 or 37° C. Initiated HDAC reactions by adding diluted substrate (25 μl) to each well and mixing thoroughly. Allowed HDAC reactions to proceed for 1 hour and then stopped them by addition of Fluor de Lys™ Developer ([…]). Incubated plate at room temperature (25° C.) for 10-15 min. Read samples in a microtiter-plate reading fluorimeter capable of excitation at a wavelength in the range 350-380 nm and detection of emitted light in the range 440-460 nm.
(§1) The following TABLE B lists compounds representative of the invention and their activity in HDAC and HSP90 assays. In these assays, the following grading was used: I≧10 μM, 10 μM>II>1 μM, 1 μM>III>0.1 μM, and IV≦0.1 μM for IC50.

HSP90 = assay: Hsp90 chaperone assay (refolding of heat-denatured luciferase); format: biochemical; details: luminescence readout, graded IC50
Experimental: (a) An In Vitro Assay which Determines the Ability of a Test Compound to Inhibit Hsp90 Chaperone Activity.
The Hsp90 chaperone assay was performed to measure the ability of HSP90 protein to refold the heat-denatured luciferase protein. HSP90 was first incubated with different concentrations of test compounds in denaturation buffer (25 mM Tris, pH7.5, 8 mM MgSO4, 0.01% bovine gamma globulin and 10% glycerol) at room temperature for 30 min. Luciferase protein was added to denaturation mix and incubated at 50° C. for 8 min. The final concentration of HSP90 and luciferase in denaturation mixture were 0.375 μM and 0.125 μM respectively. A 5 μl sample of the denatured mix was diluted into 25 μl of renaturation buffer (25 mM Tris, pH7.5, 8 mM MgSO4, 0.01% bovine gamma globulin and 10% glycerol, 0.5 mM ATP, 2 mM DTT, 5 mM KCl, 0.3 μM HSP70 and 0.15 μM HSP40). The renaturation reaction was incubated at room temperature for 150 min, followed by dilution of 10 μl of the renatured sample into 90 μl of luciferin reagent (Luclite, PerkinElmer Life Science). The mixture was incubated at dark for 5 min before reading the luminescence signal on a TopCount plate reader (PerkinElmer Life Science).
as §1

For `Nc1ncnc2c1nc(Sc1cc3c(cc1I)OCO3)n2CCNCC(=O)NO` [Compound 37], the IC50 [1] was at least 10000 nM and the IC50 (HSP90) was 100 to 1000 nM.
With `Nc1ncnc2c1nc(Sc1cc3c(cc1Br)OCO3)n2CCNCCC(=O)NO` [Compound 20, 3-(2-(6-amino-8-(6-bromobenzo[d][1,3]dioxol-5-ylthio)-9H-purin-9-yl)ethylamino)-N-hydroxypropanamide] the IC50 [1] was at least 10000 nM and the IC50 (HSP90) was 100 to 1000 nM.
Molecule `Nc1ncnc2c1nc(Sc1cc3c(cc1Br)OCO3)n2CCNCCCCCCCC(=O)NO` [Compound 41, 8-(2-(6-amino-8-(6-bromobenzo[d][1,3]dioxol-5-ylthio)-9H-purin-9-yl)ethylamino)-N-hydroxyoctanamide] has an IC50 [1] of at most 100 nM.
With `C#CCCCn1c(Sc2cccc(OCCCC(=O)NO)c2)nc2c(N)ncnc21` [Compound 16, 4-(3-(6-amino-9-(pent-4-ynyl)-9H-purin-8-ylthio)phenoxy)-N-hydroxybutanamide] the IC50 [1] was at most 100 nM and the IC50 (HSP90) was at least 10000 nM.
`Nc1ncnc2c1nc(Sc1cc3c(cc1Br)OCO3)n2CCNCC(=O)NO` [Compound 33] gave an IC50 [1] of at least 10000 nM and an IC50 (HSP90) of 100 to 1000 nM.
`Nc1ncnc2c1nc(Sc1cc3c(cc1Br)OCO3)n2CCCCCCC(=O)NO` [Compound 6, 7-(6-amino-8-(6-bromobenzo[d][1,3]dioxol-5-ylthio)-9H-purin-9-yl)-N-hydroxyheptanamide] showed an IC50 [1] of at most 100 nM and an IC50 (HSP90) of 100 to 1000 nM.
For `Nc1ncnc2c1nc(Sc1cc3c(cc1Br)OCO3)n2CCOCCCCCC(=O)NO` [Compound 29, 6-(2-(6-amino-8-(6-bromobenzo[d][1,3]dioxol-5-ylthio)-9H-purin-9-yl)ethoxy)-N-hydroxyhexanamide], the IC50 [1] was 1000 to 10000 nM and the IC50 (HSP90) was at least 10000 nM.
In the case of `Nc1ncnc2c1nc(Sc1cc3c(cc1Br)OCO3)n2CC(=O)NO` [Compound 1, 2-(6-amino-8-(6-bromobenzo[d][1,3]dioxol-5-ylthio)-9H-purin-9-yl)-N-hydroxyacetamide], the melting point is reported as 230 °C (dec.).
`COc1ccc(I)c(Sc2nc3c(N)ncnc3n2CCCCCCC(=O)NO)c1` [Compound 12, 7-(6-amino-8-(2-iodo-5-methoxyphenylthio)-9H-purin-9-yl)-N-hydroxyheptanamide] showed an IC50 [1] of at most 100 nM.
`Nc1ncnc2c1nc(Sc1cc3c(cc1Br)OCO3)n2CCOCCCCCCC(=O)NO` [Compound 30, 7-(2-(6-amino-8-(6-bromobenzo[d][1,3]dioxol-5-ylthio)-9H-purin-9-yl)ethoxy)-N-hydroxyheptanamide] gave an IC50 [1] of at most 100 nM and an IC50 (HSP90) of at least 10000 nM.
In the case of `C#CCCCn1c(Sc2cccc(OCCCCCC(=O)NO)c2)nc2c(N)ncnc21` [Compound 18, 6-(3-(6-amino-9-(pent-4-ynyl)-9H-purin-8-ylthio)phenoxy)-N-hydroxyhexanamide], the IC50 [1] is reported as at most 100 nM and the IC50 (HSP90) is reported as at least 10000 nM.
Work on `Nc1ncnc2c1nc(Sc1cc3c(cc1Br)OCO3)n2CCNCCCCCCC(=O)NO` [Compound 24, 7-(2-(6-amino-8-(6-bromobenzo[d][1,3]dioxol-5-ylthio)-9H-purin-9-yl)ethylamino)-N-hydroxyheptanamide] yielded an IC50 [1] of at most 100 nM and an IC50 (HSP90) of 100 to 1000 nM.
For `Nc1ncnc2c1nc(Sc1cc3c(cc1Br)OCO3)n2CCCCCC(=O)NO` [Compound 5, 6-(6-amino-8-(6-bromobenzo[d][1,3]dioxol-5-ylthio)-9H-purin-9-yl)-N-hydroxyhexanamide], the IC50 [1] was 100 to 1000 nM and the IC50 (HSP90) was 100 to 1000 nM.
Molecule `Nc1ncnc2c1nc(Sc1cc3c(cc1Br)OCO3)n2CCOCC(=O)NO` [Compound 40] has an IC50 [1] of at least 10000 nM and an IC50 (HSP90) of at least 10000 nM.
`Nc1ncnc2c1nc(Sc1cc3c(cc1Cl)OCO3)n2CCCCCCC(=O)NO` [Compound 31, 7-(6-amino-8-(6-chlorobenzo[d][1,3]dioxol-5-ylthio)-9H-purin-9-yl)-N-hydroxyheptanamide] gave an IC50 [1] of at most 100 nM and an IC50 (HSP90) of 1000 to 10000 nM.
`Nc1ncnc2c1nc(Sc1cc3c(cc1Br)OCO3)n2CCNCCCCCC(=O)NO` [Compound 23, 6-(2-(6-amino-8-(6-bromobenzo[d][1,3]dioxol-5-ylthio)-9H-purin-9-yl)ethylamino)-N-hydroxyhexanamide] showed an IC50 [1] of at most 100 nM and an IC50 (HSP90) of 100 to 1000 nM.
In the case of `Nc1ncnc2c1nc(Sc1cc3c(cc1Br)OCO3)n2CCOCCCC(=O)NO` [Compound 27, 4-(2-(6-amino-8-(6-bromobenzo[d][1,3]dioxol-5-ylthio)-9H-purin-9-yl)ethoxy)-N-hydroxybutanamide], the IC50 [1] is reported as at least 10000 nM and the IC50 (HSP90) is reported as at least 10000 nM.
For `C#CCCCn1c(Sc2cccc(OCC(=O)NO)c2)nc2c(N)ncnc21` [Compound 14, 2-(3-(6-amino-9-(pent-4-ynyl)-9H-purin-8-ylthio)phenoxy)-N-hydroxyacetamide], the IC50 [1] was 100 to 1000 nM.
`Nc1ncnc2c1nc(Sc1cc3c(cc1I)OCO3)n2CCNCCCCCCC(=O)NO` [Compound 39, 7-(2-(6-amino-8-(6-iodobenzo[d][1,3]dioxol-5-ylthio)-9H-purin-9-yl)ethylamino)-N-hydroxyheptanamide] showed an IC50 [1] of at most 100 nM and an IC50 (HSP90) of 100 to 1000 nM.
Molecule `Nc1nccc2c1nc(Sc1cc3c(cc1Br)OCO3)n2CCCCCCC(=O)NO` [Compound 35, 7-(4-amino-2-(6-bromobenzo[d][1,3]dioxol-5-ylthio)-1H-imidazo[4,5-c]pyridin-1-yl)-N-hydroxyheptanamide] has an IC50 [1] of at most 100 nM and an IC50 (HSP90) of 1000 to 10000 nM.
`Nc1ncnc2c1nc(Sc1cc3c(cc1I)OCO3)n2CCCCCCC(=O)NO` [Compound 32, 7-(6-amino-8-(6-iodobenzo[d][1,3]dioxol-5-ylthio)-9H-purin-9-yl)-N-hydroxyheptanamide] showed an IC50 [1] of at most 100 nM and an IC50 (HSP90) of at most 100 nM.
Work on `Nc1ncnc2c1nc(Sc1cc3c(cc1Br)OCO3)n2CCOCCCCC(=O)NO` [Compound 28, 5-(2-(6-amino-8-(6-bromobenzo[d][1,3]dioxol-5-ylthio)-9H-purin-9-yl)ethoxy)-N-hydroxypentanamide] yielded an IC50 [1] of 1000 to 10000 nM and an IC50 (HSP90) of at least 10000 nM.
In the case of `C#CCCCn1c(Sc2cccc(C(=O)NO)c2)nc2c(N)ncnc21` [Compound 13], the IC50 [1] is reported as at least 10000 nM and the IC50 (HSP90) is reported as at least 10000 nM.
`Nc1nccc2c1nc(Sc1cc3c(cc1I)OCO3)n2CCCCCCC(=O)NO` [Compound 36, 7-(4-amino-2-(6-iodobenzo[d][1,3]dioxol-5-ylthio)-1H-imidazo[4,5-c]pyridin-1-yl)-N-hydroxyheptanamide] gave an IC50 [1] of at most 100 nM and an IC50 (HSP90) of 100 to 1000 nM.
`Nc1nccc2c1nc(Sc1cc3c(cc1Cl)OCO3)n2CCCCCCC(=O)NO` [Compound 34, 7-(4-amino-2-(6-chlorobenzo[d][1,3]dioxol-5-ylthio)-1H-imidazo[4,5-c]pyridin-1-yl)-N-hydroxyheptanamide] gave an IC50 [1] of at most 100 nM and an IC50 (HSP90) of 1000 to 10000 nM.
Molecule `Nc1ncnc2c1nc(Sc1cc3c(cc1I)OCO3)n2CCNCCCCCC(=O)NO` [Compound 38, 6-(2-(6-amino-8-(6-iodobenzo[d][1,3]dioxol-5-ylthio)-9H-purin-9-yl)ethylamino)-N-hydroxyhexanamide] has an IC50 [1] of 100 to 1000 nM and an IC50 (HSP90) of 100 to 1000 nM.
